How the values were obtained:
PD patients = conditions: intravenous (IV); cited from earlier work
[1] = tested on: mouse model of severe dopamine depletion; assay: Superiority model; type: in vivo; conditions: mice
Description: Both Apomorphine and L-DOPA stimulate D1 and D2-like dopamine receptors.

SMILES	antiparkinson efficacy (PD patients)	reversal of motility deficits / restoration of locomotion [1]
CCCc1cc2c(s1)CN[C@@H]1CCc3cc(OC(C)=O)c(OC(C)=O)cc3[C@@H]21 [Adrogolide]	comparable to that of L-DOPA	
CN1CCc2cccc3c2[C@H]1Cc1ccc(O)c(O)c1-3 [Apomorphine]		able to reverse motility deficits
N[C@@H](Cc1ccc(O)c(O)c1)C(=O)O [L-DOPA, (levo)-3,4-dihydroxy phenylalanine]		able to reverse motility deficits

From patent US8129530B2, “Catecholamine derivatives and prodrugs thereof” (H. Lundbeck A/S, priority 2007, dated 2012)
